# According to patent US11452731B2, “Method of treating and preventing loss of cognition” (ENDORECHERCHE, INC., priority 2009, dated 2022):
# Experiment: Clinical trial ERC-205: DHEA 50 mg daily versus placebo on hot flushes in postmenopausal women (Example 10)
# Assay type: in vivo
# Details: 50 mg
# Procedure: Postmenopausal women experiencing moderate or severe hot flushes per week (as determined by a two week diary) were randomized to receive a daily dose of either placebo or 50 mg DHEA. Fifty evaluable participants (25 patients per arm) were treated for four months with a daily assessment of hot flushes recorded in a diary completed by each participant.
# Postmenopausal women aged 40 to 70 years with moderate or severe hot flushes per week, as confirmed by a two-week screening hot flush diary were enrolled after signing informed consent. The protocol was approved by the Institutional Review Board (IRB) of Le Centre Hospitalier de l'Université Laval and by Health Canada.
# The primary endpoint was the change from Baseline in the weekly frequency of moderate to severe hot flushes at Week 16, after four months of treatment. The objectives also included the change from Baseline in the weekly frequency of all hot flushes and the change from Baseline in the weekly weighted severity score.
# The response endpoint is the patient's paper diary which was filled in daily to specify the number and type of hot flushes as follows:
# The hot flush diary began as a Screening diary for two weeks prior to randomization whereby patients had to complete the diary daily, recording the number and severity of hot flushes. The patients had to record an average of 50 or more moderate or severe hot flushes per week over the two-week period to be eligible (i.e., at least 100 hot flushes documented on the two week Screening diary).
# Once randomized, the patient completed eight, two-week hot flush diaries upon beginning study medication. The diaries had to be filled out on a daily basis. The first diary was completed over the first two weeks and be returned on the two week visit. The second two-week diary was completed over the next two weeks of the first four week treatment period and was returned at the four week visit. At 4, 8, 12 and 16 week visits, two two-week diaries for hot flushes were collected.
# [1] = strata 50 to 70 hot flushes per week at screening, Week 16
# [2] = strata ≥71 hot flushes per week at screening, Screening (mean of 2 w), baseline
# [3] = strata ≥71 hot flushes per week at screening, Week 1
# [4] = strata ≥71 hot flushes per week at screening, Week 2
# [5] = strata ≥71 hot flushes per week at screening, Week 3
# [6] = strata ≥71 hot flushes per week at screening, Week 4
# [7] = strata ≥71 hot flushes per week at screening, Week 5
# [8] = strata ≥71 hot flushes per week at screening, Week 6
# [9] = strata ≥71 hot flushes per week at screening, Week 7
# [10] = strata ≥71 hot flushes per week at screening, Week 8
# [11] = strata ≥71 hot flushes per week at screening, Week 9
# [12] = strata ≥71 hot flushes per week at screening, Week 10
# [13] = strata ≥71 hot flushes per week at screening, Week 11
# [14] = strata ≥71 hot flushes per week at screening, Week 12
# [15] = strata ≥71 hot flushes per week at screening, Week 13
smiles,measurement,setting,value
"C[C@]12CC[C@H](O)CC1=CC[C@@H]1[C@@H]2CC[C@]2(C)C(=O)CC[C@@H]12 [DHEA, dehydroepiandrosterone]",WEIGHTED SEVERITY SCORE OF HOT FLUSHES PER WEEK (MEAN),"strata 50 to 70 hot flushes per week at screening, Week 15",83.7
same,NUMBER OF ALL HOT FLUSHES PER WEEK (MEAN),[1],35.7
same,NUMBER OF MODERATE TO SEVERE HOT FLUSHES PER WEEK (MEAN),[1],32.7
same,WEIGHTED SEVERITY SCORE OF HOT FLUSHES PER WEEK (MEAN),[1],81.6
same,NUMBER OF ALL HOT FLUSHES PER WEEK (MEAN),[2],91.0
same,NUMBER OF MODERATE TO SEVERE HOT FLUSHES PER WEEK (MEAN),[2],88.5
same,WEIGHTED SEVERITY SCORE OF HOT FLUSHES PER WEEK (MEAN),[2],241.6
same,NUMBER OF ALL HOT FLUSHES PER WEEK (MEAN),[3],68.6
same,NUMBER OF MODERATE TO SEVERE HOT FLUSHES PER WEEK (MEAN),[3],64.1
same,WEIGHTED SEVERITY SCORE OF HOT FLUSHES PER WEEK (MEAN),[3],175.2
same,NUMBER OF ALL HOT FLUSHES PER WEEK (MEAN),[4],57.9
same,NUMBER OF MODERATE TO SEVERE HOT FLUSHES PER WEEK (MEAN),[4],53.5
same,WEIGHTED SEVERITY SCORE OF HOT FLUSHES PER WEEK (MEAN),[4],150.8
same,NUMBER OF ALL HOT FLUSHES PER WEEK (MEAN),[5],57.5
same,NUMBER OF MODERATE TO SEVERE HOT FLUSHES PER WEEK (MEAN),[5],52.5
same,WEIGHTED SEVERITY SCORE OF HOT FLUSHES PER WEEK (MEAN),[5],149.8
same,NUMBER OF ALL HOT FLUSHES PER WEEK (MEAN),[6],62.7
same,NUMBER OF MODERATE TO SEVERE HOT FLUSHES PER WEEK (MEAN),[6],57.8
same,WEIGHTED SEVERITY SCORE OF HOT FLUSHES PER WEEK (MEAN),[6],166.5
same,NUMBER OF ALL HOT FLUSHES PER WEEK (MEAN),[7],60.0
same,NUMBER OF MODERATE TO SEVERE HOT FLUSHES PER WEEK (MEAN),[7],53.2
same,WEIGHTED SEVERITY SCORE OF HOT FLUSHES PER WEEK (MEAN),[7],154.1
same,NUMBER OF ALL HOT FLUSHES PER WEEK (MEAN),[8],53.9
same,NUMBER OF MODERATE TO SEVERE HOT FLUSHES PER WEEK (MEAN),[8],47.6
same,WEIGHTED SEVERITY SCORE OF HOT FLUSHES PER WEEK (MEAN),[8],138.7
same,NUMBER OF ALL HOT FLUSHES PER WEEK (MEAN),[9],52.2
same,NUMBER OF MODERATE TO SEVERE HOT FLUSHES PER WEEK (MEAN),[9],46.7
same,WEIGHTED SEVERITY SCORE OF HOT FLUSHES PER WEEK (MEAN),[9],137.2
same,NUMBER OF ALL HOT FLUSHES PER WEEK (MEAN),[10],48.9
same,NUMBER OF MODERATE TO SEVERE HOT FLUSHES PER WEEK (MEAN),[10],43.3
same,WEIGHTED SEVERITY SCORE OF HOT FLUSHES PER WEEK (MEAN),[10],129.0
same,NUMBER OF ALL HOT FLUSHES PER WEEK (MEAN),[11],47.0
same,NUMBER OF MODERATE TO SEVERE HOT FLUSHES PER WEEK (MEAN),[11],41.1
same,WEIGHTED SEVERITY SCORE OF HOT FLUSHES PER WEEK (MEAN),[11],121.8
same,NUMBER OF ALL HOT FLUSHES PER WEEK (MEAN),[12],46.9
same,NUMBER OF MODERATE TO SEVERE HOT FLUSHES PER WEEK (MEAN),[12],41.6
same,WEIGHTED SEVERITY SCORE OF HOT FLUSHES PER WEEK (MEAN),[12],121.6
same,NUMBER OF ALL HOT FLUSHES PER WEEK (MEAN),[13],42.8
same,NUMBER OF MODERATE TO SEVERE HOT FLUSHES PER WEEK (MEAN),[13],36.4
same,WEIGHTED SEVERITY SCORE OF HOT FLUSHES PER WEEK (MEAN),[13],110.2
same,NUMBER OF ALL HOT FLUSHES PER WEEK (MEAN),[14],39.3
same,NUMBER OF MODERATE TO SEVERE HOT FLUSHES PER WEEK (MEAN),[14],33.1
same,WEIGHTED SEVERITY SCORE OF HOT FLUSHES PER WEEK (MEAN),[14],98.7
same,NUMBER OF ALL HOT FLUSHES PER WEEK (MEAN),[15],39.3
same,NUMBER OF MODERATE TO SEVERE HOT FLUSHES PER WEEK (MEAN),[15],33.9
same,WEIGHTED SEVERITY SCORE OF HOT FLUSHES PER WEEK (MEAN),[15],102.8
same,NUMBER OF ALL HOT FLUSHES PER WEEK (MEAN),"strata ≥71 hot flushes per week at screening, Week 14",37.3
